How the values were obtained:
Experiment in all cases: Eurofins kinase selectivity profile against 380 other human recombinant kinases (Table S2)
Format in all cases: biochemical
[1] = target: T1, 380 human recombinant protein kinases (Homo sapiens, UniProt Q5TCX8); conditions: MLK4(h), read-out: Inhibition rate
T1 construct: purchased Eurofins (Celle Lévescault)
Summary of the method: (§1)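 To gauge specificity for MK2, the compound is profiled externally at various concentrations on recombinant human kinases, 380 in total.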

[2] = target: T2, 380 human recombinant protein kinases (Homo sapiens, UniProt Q02156); conditions: PKCε(h), read-out: Inhibition rate
T2 construct: purchased Eurofins (Celle Lévescault)
T2 sequence (Q02156 1-737): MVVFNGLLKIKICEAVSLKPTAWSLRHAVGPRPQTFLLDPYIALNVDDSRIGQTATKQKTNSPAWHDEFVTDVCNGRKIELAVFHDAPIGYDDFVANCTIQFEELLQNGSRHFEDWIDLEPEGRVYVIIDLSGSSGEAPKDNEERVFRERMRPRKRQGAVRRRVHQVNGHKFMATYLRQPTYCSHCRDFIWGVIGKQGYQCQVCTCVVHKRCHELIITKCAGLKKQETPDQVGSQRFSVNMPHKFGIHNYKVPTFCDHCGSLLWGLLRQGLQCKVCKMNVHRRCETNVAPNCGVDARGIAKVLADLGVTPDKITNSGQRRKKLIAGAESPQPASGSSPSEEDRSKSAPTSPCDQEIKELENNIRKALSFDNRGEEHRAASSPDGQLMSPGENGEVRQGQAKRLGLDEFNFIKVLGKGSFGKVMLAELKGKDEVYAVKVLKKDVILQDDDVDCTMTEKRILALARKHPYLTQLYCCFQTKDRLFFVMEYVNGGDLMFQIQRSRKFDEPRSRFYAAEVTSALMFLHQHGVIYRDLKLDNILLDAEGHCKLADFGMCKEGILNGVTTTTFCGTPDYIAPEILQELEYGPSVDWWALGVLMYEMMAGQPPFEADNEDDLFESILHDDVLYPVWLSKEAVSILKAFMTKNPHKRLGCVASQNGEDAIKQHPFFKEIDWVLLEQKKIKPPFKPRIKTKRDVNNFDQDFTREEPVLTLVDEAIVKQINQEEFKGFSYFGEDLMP
Summary of the method: as §1

[3] = target: T3, 380 human recombinant protein kinases (Homo sapiens, UniProt Q15418); conditions: Rsk1(h), read-out: Inhibition rate
T3 construct: purchased Eurofins (Celle Lévescault)
T3 sequence (Q15418 whole entry): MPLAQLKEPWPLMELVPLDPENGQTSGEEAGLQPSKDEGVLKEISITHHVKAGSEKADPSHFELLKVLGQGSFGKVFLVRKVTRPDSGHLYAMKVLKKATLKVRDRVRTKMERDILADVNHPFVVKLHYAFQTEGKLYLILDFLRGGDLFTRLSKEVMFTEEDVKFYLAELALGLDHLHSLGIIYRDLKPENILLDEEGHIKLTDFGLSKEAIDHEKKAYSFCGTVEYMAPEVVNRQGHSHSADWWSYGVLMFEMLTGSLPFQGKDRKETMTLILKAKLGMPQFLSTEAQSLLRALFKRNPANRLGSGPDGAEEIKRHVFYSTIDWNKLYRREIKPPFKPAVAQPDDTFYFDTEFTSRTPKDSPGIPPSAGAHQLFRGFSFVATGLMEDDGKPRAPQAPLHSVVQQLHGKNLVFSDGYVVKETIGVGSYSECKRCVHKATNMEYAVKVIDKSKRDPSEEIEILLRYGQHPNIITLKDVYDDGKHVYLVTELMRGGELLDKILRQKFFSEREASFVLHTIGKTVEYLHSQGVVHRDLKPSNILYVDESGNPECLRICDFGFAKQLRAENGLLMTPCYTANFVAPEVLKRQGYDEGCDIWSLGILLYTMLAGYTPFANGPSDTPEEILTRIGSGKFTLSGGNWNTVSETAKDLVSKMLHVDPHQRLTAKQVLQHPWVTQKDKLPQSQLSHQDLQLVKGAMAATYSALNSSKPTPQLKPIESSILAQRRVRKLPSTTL
Summary of the method: as §1

[4] = target: T4, 380 human recombinant protein kinases (Homo sapiens, UniProt Q06187); conditions: BTK(h), read-out: Inhibition rate
T4 construct: purchased Eurofins (Celle Lévescault)
T4 sequence (Q06187 whole entry): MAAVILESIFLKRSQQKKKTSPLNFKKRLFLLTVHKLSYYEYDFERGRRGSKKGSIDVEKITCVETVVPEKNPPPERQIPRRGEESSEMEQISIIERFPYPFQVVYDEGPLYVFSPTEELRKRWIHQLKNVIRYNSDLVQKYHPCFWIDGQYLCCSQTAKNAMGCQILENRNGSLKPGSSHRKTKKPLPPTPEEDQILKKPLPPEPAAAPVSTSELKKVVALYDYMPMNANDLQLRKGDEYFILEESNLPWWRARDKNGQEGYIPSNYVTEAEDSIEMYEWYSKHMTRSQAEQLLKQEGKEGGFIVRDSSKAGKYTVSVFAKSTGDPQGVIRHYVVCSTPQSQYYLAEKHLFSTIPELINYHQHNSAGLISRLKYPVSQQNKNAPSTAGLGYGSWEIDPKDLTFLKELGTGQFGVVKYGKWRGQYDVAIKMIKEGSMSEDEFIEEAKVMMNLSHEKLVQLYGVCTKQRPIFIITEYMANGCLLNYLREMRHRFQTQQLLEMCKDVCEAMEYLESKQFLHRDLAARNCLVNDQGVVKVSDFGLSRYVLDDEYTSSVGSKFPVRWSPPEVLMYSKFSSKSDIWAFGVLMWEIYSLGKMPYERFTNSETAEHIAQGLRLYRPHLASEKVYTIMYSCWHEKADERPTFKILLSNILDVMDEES
Summary of the method: as §1

[5] = target: T5, 380 human recombinant protein kinases (Homo sapiens, UniProt Q7L7X3); conditions: TAO1(h), read-out: Inhibition rate (%)
T5 construct: purchased Eurofins (Celle Lévescault)
T5 sequence (Q7L7X3 1-1001): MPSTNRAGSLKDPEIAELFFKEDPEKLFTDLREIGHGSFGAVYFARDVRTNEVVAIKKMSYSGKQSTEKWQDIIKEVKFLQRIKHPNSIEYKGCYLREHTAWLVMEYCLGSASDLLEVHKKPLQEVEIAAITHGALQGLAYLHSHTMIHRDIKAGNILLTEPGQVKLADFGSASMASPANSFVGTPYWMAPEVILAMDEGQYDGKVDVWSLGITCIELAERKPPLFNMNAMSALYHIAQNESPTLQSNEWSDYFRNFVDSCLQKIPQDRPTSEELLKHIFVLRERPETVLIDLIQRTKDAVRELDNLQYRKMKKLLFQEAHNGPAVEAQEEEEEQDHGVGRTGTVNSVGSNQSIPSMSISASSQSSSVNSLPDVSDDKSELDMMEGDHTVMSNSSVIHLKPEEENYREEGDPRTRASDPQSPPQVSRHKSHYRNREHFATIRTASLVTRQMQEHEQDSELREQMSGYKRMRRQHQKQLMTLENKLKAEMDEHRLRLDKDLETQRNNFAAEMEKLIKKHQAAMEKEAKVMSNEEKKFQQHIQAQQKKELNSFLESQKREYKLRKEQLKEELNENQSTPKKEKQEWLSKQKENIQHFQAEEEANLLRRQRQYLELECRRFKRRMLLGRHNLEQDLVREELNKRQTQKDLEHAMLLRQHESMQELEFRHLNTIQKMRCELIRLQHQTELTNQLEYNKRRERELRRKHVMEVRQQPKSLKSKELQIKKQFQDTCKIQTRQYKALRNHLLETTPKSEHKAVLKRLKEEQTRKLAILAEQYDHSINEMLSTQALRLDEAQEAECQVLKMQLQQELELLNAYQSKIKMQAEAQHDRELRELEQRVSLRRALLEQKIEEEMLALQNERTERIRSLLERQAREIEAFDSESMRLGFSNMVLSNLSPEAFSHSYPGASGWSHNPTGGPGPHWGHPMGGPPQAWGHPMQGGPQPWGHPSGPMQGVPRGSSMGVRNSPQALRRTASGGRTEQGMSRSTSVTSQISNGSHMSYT
Summary of the method: as §1

[6] = target: T6, 380 human recombinant protein kinases (Homo sapiens, UniProt Q9BXA7); conditions: TSSK1(h), read-out: Inhibition rate (%)
T6 construct: purchased Eurofins (Celle Lévescault)
T6 sequence (Q9BXA7 1-367): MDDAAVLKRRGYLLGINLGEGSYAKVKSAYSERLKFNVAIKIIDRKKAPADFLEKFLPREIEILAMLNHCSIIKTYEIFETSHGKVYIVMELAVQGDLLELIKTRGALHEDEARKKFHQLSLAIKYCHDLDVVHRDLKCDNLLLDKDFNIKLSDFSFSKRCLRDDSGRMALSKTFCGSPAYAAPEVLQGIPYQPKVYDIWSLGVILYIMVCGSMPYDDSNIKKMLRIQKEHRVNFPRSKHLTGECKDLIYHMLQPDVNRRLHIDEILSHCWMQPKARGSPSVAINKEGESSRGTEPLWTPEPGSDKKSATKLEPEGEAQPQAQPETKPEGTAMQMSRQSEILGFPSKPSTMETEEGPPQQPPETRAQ
Summary of the method: as §1

T1 sequence (Q5TCX8 whole entry): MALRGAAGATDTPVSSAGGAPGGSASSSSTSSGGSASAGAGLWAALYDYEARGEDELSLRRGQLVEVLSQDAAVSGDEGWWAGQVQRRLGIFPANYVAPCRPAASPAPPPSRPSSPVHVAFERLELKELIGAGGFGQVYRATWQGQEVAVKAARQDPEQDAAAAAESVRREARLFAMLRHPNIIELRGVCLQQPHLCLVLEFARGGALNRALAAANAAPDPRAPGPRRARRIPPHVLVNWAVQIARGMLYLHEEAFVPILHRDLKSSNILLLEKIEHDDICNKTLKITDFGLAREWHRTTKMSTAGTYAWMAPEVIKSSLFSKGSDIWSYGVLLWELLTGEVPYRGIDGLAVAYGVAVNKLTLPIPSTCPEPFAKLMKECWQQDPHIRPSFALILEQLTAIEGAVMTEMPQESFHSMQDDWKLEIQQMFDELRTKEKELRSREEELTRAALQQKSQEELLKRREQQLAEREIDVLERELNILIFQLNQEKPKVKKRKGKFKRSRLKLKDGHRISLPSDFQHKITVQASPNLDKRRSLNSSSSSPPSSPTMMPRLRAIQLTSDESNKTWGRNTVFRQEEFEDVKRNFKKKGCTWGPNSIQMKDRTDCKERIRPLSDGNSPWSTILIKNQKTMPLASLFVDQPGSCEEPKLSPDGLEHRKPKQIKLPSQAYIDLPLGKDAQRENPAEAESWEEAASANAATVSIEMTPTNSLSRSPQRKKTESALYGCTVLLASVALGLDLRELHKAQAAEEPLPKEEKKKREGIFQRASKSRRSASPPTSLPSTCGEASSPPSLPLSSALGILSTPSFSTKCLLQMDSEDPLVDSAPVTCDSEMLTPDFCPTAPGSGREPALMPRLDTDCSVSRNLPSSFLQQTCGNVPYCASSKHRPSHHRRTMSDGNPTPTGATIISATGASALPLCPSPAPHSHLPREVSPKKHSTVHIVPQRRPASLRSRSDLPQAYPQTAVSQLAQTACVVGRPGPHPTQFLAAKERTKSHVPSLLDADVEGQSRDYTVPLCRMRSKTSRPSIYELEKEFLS

**Q.** How did the inhibition at 0.01 µM ([1]; 10 nM) turn out when C=CC(=O)Nc1cc(-c2cc(-c3cc4c([nH]3)CCNC4=O)ccn2)ccc1OC(F)(F)F [compound 11] was run?
**A.** The inhibition at 0.01 µM was -2%.

**Q.** And the inhibition at 0.1 µM ([1]; 100 nM)?
**A.** Its inhibition at 0.1 µM is -2%.

**Q.** And the inhibition at 1 µM ([1]; 1000 nM)?
**A.** Its inhibition at 1 µM is -3%.

**Q.** And the inhibition at 0.01 µM ([2]; 10 nM)?
**A.** The inhibition at 0.01 µM was 1%.

**Q.** And the inhibition at 0.1 µM ([2]; 100 nM)?
**A.** The inhibition at 0.1 µM was 12%.

**Q.** And the inhibition at 1 µM ([2]; 1000 nM)?
**A.** The inhibition at 1 µM was 13%.

**Q.** What about the inhibition at 0.01 µM ([3]; 10 nM) of the same compound?
**A.** Its inhibition at 0.01 µM is -2%.

**Q.** And the inhibition at 0.1 µM ([3]; 100 nM)?
**A.** The inhibition at 0.1 µM was -3%.

**Q.** What about the inhibition at 1 µM ([3]; 1000 nM) of the same compound?
**A.** The inhibition at 1 µM was -7%.

**Q.** What about the inhibition at 0.01 µM ([4]; 10 nM) of the same compound?
**A.** Its inhibition at 0.01 µM is -4%.

**Q.** What about the inhibition at 0.1 µM ([4]; 100 nM) of the same compound?
**A.** The inhibition at 0.1 µM was 10%.

**Q.** And the inhibition at 1 µM ([4]; 1000 nM)?
**A.** The inhibition at 1 µM was 17%.

**Q.** And the inhibition at 0.01 µM ([5]; 10 nM)?
**A.** The inhibition at 0.01 µM was 3%.

**Q.** And the inhibition at 0.1 µM ([5]; 100 nM)?
**A.** Its inhibition at 0.1 µM is 6%.

**Q.** What about the inhibition at 1 µM ([5]; 1000 nM) of the same compound?
**A.** Its inhibition at 1 µM is 11%.

**Q.** What about the inhibition at 0.01 µM ([6]; 10 nM) of the same compound?
**A.** The inhibition at 0.01 µM was 1%.

**Q.** And the inhibition at 0.1 µM ([6]; 100 nM)?
**A.** The inhibition at 0.1 µM was 2%.

**Q.** And the inhibition at 1 µM ([6]; 1000 nM)?
**A.** The inhibition at 1 µM was 7%.
